From patent US8637536B2, “Pyrimidinone compounds for use in the treatment of diseases or conditions mediated by Lp-PLA2” (Glaxo Group Limited, priority 2010, dated 2014)
Where a name gives a salt, the structure may show the parent alone. Read-outs that look alike come from different tables or passages of the source.

Tests used:
[1] = molecular target: T1, recombinant human Lp-PLA2 (Homo sapiens, UniProt Q13093); assay: Recombinant human Lp-PLA2 assay (rhLp-PLA2, PED6 assay); format: biochemical
T1 sequence (Q13093 22-441): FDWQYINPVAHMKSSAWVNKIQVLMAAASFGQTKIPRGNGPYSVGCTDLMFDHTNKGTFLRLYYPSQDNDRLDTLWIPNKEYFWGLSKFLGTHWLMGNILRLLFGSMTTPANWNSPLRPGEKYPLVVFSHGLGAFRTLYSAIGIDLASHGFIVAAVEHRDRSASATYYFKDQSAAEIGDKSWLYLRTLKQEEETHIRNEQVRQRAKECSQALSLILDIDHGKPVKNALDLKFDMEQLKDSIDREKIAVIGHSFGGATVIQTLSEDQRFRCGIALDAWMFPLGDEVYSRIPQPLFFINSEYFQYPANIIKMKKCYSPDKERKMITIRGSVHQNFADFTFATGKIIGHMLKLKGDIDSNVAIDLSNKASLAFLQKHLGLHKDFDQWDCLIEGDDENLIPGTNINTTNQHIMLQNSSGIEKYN
Description: (1) Recombinant Human Lp-PLA2 Assay (rhLp-PLA2) (Also Referred to as “PED6” Assay)
N-((6-(2,4-dinitrophenyl)amino)-hexanoyl)-2-(4,4-difluoro-5,7-dimethyl-4-bora-3a,4a-diaza-s-indacene-3-pentanoyl)-1-hexadecanoyl-sn-glycero-3-phosphoethanolamine, triethylammonium salt (PED6) is a commercially available fluorescently-labelled phospholipid, which is commercially available from Molecular Probes. There is a quenching […] position and a Bodipy fluorescein (FL) group in the sn2 position.
The PED6 assay was run as an unquenched 10 μL assay. Compounds source plate was prepared by making 1:3 (by volume) serial dilution of the compounds into pure DMSO on 384-well microplate. […] 5 μL of recombinant human Lp-PLA2 enzyme (2 nM rhLp-PLA2 in assay buffer of 50 mM HEPES, pH7.4, 150 mM NaCl, 1 mM CHAPS) was added to each well of the plate with compounds. Plates were centrifuged for 10 sec at 500 rpm. […] Plates were centrifuged for 10 sec at 500 rpm. Plate was covered to protect from light and incubated for 20 min at room temperature. […] PIC50 data, curve and QC analysis was conducted by using XL fit module in Excel.

[2] = molecular target: T2, Lp-PLA2 from plasma (pooled human plasma) (Homo sapiens, UniProt Q13093); assay: Lp-PLA2 human plasma assay (Thio-PAF assay); format: biochemical; settings: text thresholds, read-out: pIC50 values in the thio-PAF assay (converted)
T2 construct: 8 μL pooled human plasma; from tissue; host or cells: pooled human plasma
T2 sequence (Q13093 22-441): T1 sequence (Q13093 22-441)
Description: (3) Lipoprotein-Associated Phospholipase A2 (Lp-PLA2) Human Plasma Assay (Also Referred to as “Thio-PAF Assay”)
The human plasma assay utilizes a thioester analog of PAF (phosphatidylcholine), where hydrolysis yields to the formation of a phospholipid containing a free thiol group. The amount of thiol is quantitated continuously by reacting with CPM (7-diethylamino-3-(4′-maleimidylphenyl)-4-methylcoumarin), a maleimide which increases in fluoresence after Michael addition of thiols. This assay may detect the activity of Lp-PLA2 from plasma, as determined by specific inhibition by Lp-PLA2 inhibitors.
The thio-PAF assay was run as a quenched 15 μL assay. Compounds source plate was prepared by making 1:3 (by volume) serial dilution of the compounds into pure DMSO on 384-well microplate. 0.01 μL of compounds on compound source plate were transferred to 384 well Greiner 784076 (black) low-volume plates by ECHO liquid dispenser. 8 μL pooled human plasma, which was previously aliquoted and frozen, was added. Plates were centrifuged for 10 sec at 500 rpm. After 30 minutes preincubation, 2 μL of substrate (2.5 mM thio-PAF, 3.2 mM NEM (N-ethylmaleimide) [made fresh daily in DMSO], and 32 μM CPM [from a DMSO stock] in assay buffer of 50 mM HEPES, pH7.4, 150 mM NaCl, 1 mM CHAPS was added to 384 well Greiner 784076 (black) low-volume plates by BRAVO liquid handling station. Plates were centrifuged for 10 sec at 500 rpm. Plate was covered to protect from light and incubated for 2 min at room temperature. Reaction was quenched with 5 μL of 5% aqueous trifluoroacetic acid (TFA). Plates were covered to protect from light and incubated for 40 min at room temperature. Plates were read at ex: 380/em: 485 using-Envision microplate reader. PIC50 data, curve and QC analysis was conducted by using XLFit module in Excel.

[3] = text thresholds, upper limit for pIC50 in this assay is 9.3, read-out: pIC50 values in the PED6 assay (converted)
[4] = upper limit for pIC50 obtained in this PED6 assay is 9.3, read-out: rhLp-PLA2 (PED6 assay) (pIC50) (converted)

Structure (SMILES) | IC50 [1, 3] [µM] | IC50 [2] [µM] | IC50 [1, 4] [µM]
COc1ncc(Cc2cn(C)c(SCc3ccc(Oc4ccc(Cl)c(C(F)(F)F)c4)cc3)nc2=O)cn1 [E75, 2-{[(4-{[4-chloro-3-(trifluoromethyl)phenyl]oxy}phenyl)methyl]thio}-1-methyl-5-{[2-(methyloxy)-5-pyrimidinyl]methyl}-4(1H)-pyrimidinone] | ≤ 0.001 | ≤ 0.1 | –
COc1ncc(Cc2c[nH]c(SCc3ccc(Oc4ccc(Cl)c(C(F)(F)F)c4)c(C#N)c3)nc2=O)cn1 [E84, 2-{[4-chloro-3-(trifluoromethyl)phenyl]oxy}-5-{[(5-{[2-(methyloxy)-5-pyrimidinyl]methyl}-4-oxo-1,4-dihydro-2-pyrimidinyl)thio]methyl}benzonitrile] | ≤ 0.001 | ≤ 1 | –
COc1ncc(Cc2cn(C)c(SCc3ccc(Oc4ccc(Cl)c(C(F)(F)F)c4)c(C#N)c3)nc2=O)cn1 [E85, 2-{[4-chloro-3-(trifluoromethyl)phenyl]oxy}-5-{[(1-methyl-5-{[2-(methyloxy)-5-pyrimidinyl]methyl}-4-oxo-1,4-dihydro-2-pyrimidinyl)thio]methyl}benzonitrile] | ≤ 0.001 | ≤ 0.1 | –
N#Cc1cc(CSc2nc(=O)c(Cc3cncnc3)c[nH]2)ccc1Oc1ccc(F)c(C(F)(F)F)c1 [E87, 2-{[4-fluoro-3-(trifluoromethyl)phenyl]oxy}-5-({[4-oxo-5-(5-pyrimidinylmethyl)-1,4-dihydro-2-pyrimidinyl]thio}methyl)benzonitrile] | ≤ 0.001 | ≤ 1 | –
COc1ncc(Cc2cn(C)c(SCc3ccc(Oc4ccc(F)c(C(F)(F)F)c4)c(C#N)c3)nc2=O)cn1 [E90, 2-{[4-fluoro-3-(trifluoromethyl)phenyl]oxy}-5-{[(1-methyl-5-{[2-(methyloxy)-5-pyrimidinyl]methyl}-4-oxo-1,4-dihydro-2-pyrimidinyl)thio]methyl}benzonitrile] | ≤ 0.001 | ≤ 0.1 | –
Cn1cc(Cc2cn(C)c(SCc3ccc(Oc4cc(Cl)ccn4)cc3)nc2=O)cn1 [E93, 2-[({4-[(4-chloro-2-pyridinyl)oxy]phenyl}methyl)thio]-1-methyl-5-[(1-methyl-1H-pyrazol-4-yl)methyl]-4(1H)-pyrimidinone] | ≤ 0.001 | ≤ 0.1 | –
Cn1cc(Cc2cn(C)c(SCc3ccc(Oc4cccc(C(F)(F)F)c4)c(C#N)c3)nc2=O)cn1 [E95, 5-(((1-methyl-5-((1-methyl-1H-pyrazol-4-yl)methyl)-4-oxo-1,4-dihydropyrimidin-2-yl)thio)methyl)-2-(3-(trifluoromethyl)phenoxy)benzonitrile, trifluoroacetic acid salt] | ≤ 0.001 | ≤ 0.1 | –
Cn1cc(Cc2cncnc2)c(=O)nc1SCc1ccc(Oc2cccc(C(F)(F)F)c2)c(C#N)c1 [E97, 5-({[1-methyl-4-oxo-5-(5-pyrimidinylmethyl)-1,4-dihydro-2-pyrimidinyl]thio}methyl)-2-{[3-(trifluoromethyl)phenyl]oxy}benzonitrile] | ≤ 0.001 | ≤ 0.1 | –
CCc1cn(CC)c(OCCc2ccc(Oc3ccc(Cl)c(C(F)(F)F)c3)cc2)nc1=O [E130, 2-{[2-(4-{[4-chloro-3-(trifluoromethyl)phenyl]oxy}phenyl)ethyl]oxy}-1,5-diethyl-4(1H)-pyrimidinone] | – | ≤ 1 | 0.00251
Cc1noc(Cc2c[nH]c(OCCc3ccc(Oc4ccc(Cl)c(C(F)(F)F)c4)cc3)nc2=O)n1 [E133, 2-{[2-(4-{[4-chloro-3-(trifluoromethyl)phenyl]oxy}phenyl)ethyl]oxy}-5-[(3-methyl-1,2,4-oxadiazol-5-yl)methyl]-4(1H)-pyrimidinone] | ≤ 0.01 | ≤ 1 | 0.00316
Cc1nnc(Cc2c[nH]c(OCCc3ccc(Oc4ccc(Cl)c(C(F)(F)F)c4)cc3)nc2=O)o1 [E134, 2-{[2-(4-{[4-chloro-3-(trifluoromethyl)phenyl]oxy}phenyl)ethyl]oxy}-5-[(5-methyl-1,3,4-oxadiazol-2-yl)methyl]-4(1H)-pyrimidinone] | ≤ 0.01 | ≤ 0.1 | 0.00251
Cn1cc(Cc2cncnc2)c(=O)nc1OCCc1ccc(Oc2ccc(Cl)c(C(F)(F)F)c2)c(F)c1 [E141, 2-{[2-(4-{[4-chloro-3-(trifluoromethyl)phenyl]oxy}-3-fluorophenyl)ethyl]oxy}-1-methyl-5-(5-pyrimidinylmethyl)-4(1H)-pyrimidinone] | ≤ 0.001 | ≤ 0.1 | –
COc1ncc(Cc2c[nH]c(OCCc3ccc(Oc4cnc(C(F)(F)F)nc4)cc3)nc2=O)cn1 [E143, 5-{[2-(methyloxy)-5-pyrimidinyl]methyl}-2-{[2-(4-{[2-(trifluoromethyl)-5-pyrimidinyl]oxy}phenyl)ethyl]oxy}-4(1H)-pyrimidinone] | ≤ 0.01 | ≤ 1 | –
Cc1ccc(Oc2ccc(CCOc3nc(=O)c(Cc4cncnc4)c[nH]3)cc2)cc1Cl [E150, 2-[(2-{4-[(3-chloro-4-methylphenyl)oxy]phenyl}ethyl)oxy]-5-[pyrimidin-5-ylmethyl]-4(1H)-pyrimidinone] | ≤ 0.001 | ≤ 0.1 | –
COc1ncc(Cc2c[nH]c(OCCc3ccc(Oc4ccc(C)c(Cl)c4)cc3)nc2=O)cn1 [E151, 2-[(2-{4-[(3-chloro-4-methylphenyl)oxy]phenyl}ethyl)oxy]-5-{[2-(methyloxy)-5-pyrimidinyl]methyl}-4(1H)-pyrimidinone] | ≤ 0.001 | ≤ 0.1 | –
COc1ncc(Cc2c[nH]c(OCCc3ccc(Oc4ccc(Cl)c(C(F)(F)F)n4)cc3)nc2=O)cn1 [E161, 2-(4-((5-chloro-6-(trifluoromethyl)pyridin-2-yl)oxy)phenethoxy)-5-((2-methoxypyrimidin-5-yl)methyl)pyrimidin-4(1H)-one] | ≤ 0.01 | ≤ 1 | –
Cn1cc(Cc2c[nH]c(OCCc3ccc(Oc4cc(Cl)cc(C(F)(F)F)c4)cc3)nc2=O)cn1 [E162, 2-{[2-(4-{[3-chloro-5-(trifluoromethyl)phenyl]oxy}phenyl)ethyl]oxy}-5-[(1-methyl-1H-pyrazol-4-yl)methyl]-4(1H)-pyrimidinone] | ≤ 0.01 | ≤ 0.1 | –
Cc1ncc(Cc2c[nH]c(NCCc3ccc(Oc4ccc(C(F)(F)F)cn4)cc3)nc2=O)cn1 [E208, 5-(2-methyl-pyrimidin-5-ylmethyl)-2-{2-[4-(5-trifluoromethyl-pyridin-2-yloxy)phenyl]ethylamino}-1H-pyrimidin-4-one] | – | ≤ 1 | –
O=c1ncc(Cc2c[nH]c(NCCc3ccc(Oc4ccc(Cl)c(C(F)(F)F)c4)cc3)nc2=O)c[nH]1 [E209, 2-{2-[4-(4-chloro-3-trifluoromethyl-phenoxy)-phenyl]ethylamino}-5-(2-oxo-1,2-dihydro-pyrimidin-5-ylmethyl)-1H-pyrimidin-4-one] | – | ≤ 1 | –
Cc1ncc(Cc2c[nH]c(NCCc3ccc(Oc4ccc(Cl)c(C(F)(F)F)c4)c(C#N)c3)nc2=O)cn1 [E211, 2-(4-Chloro-3-trifluoromethyl-phenoxy)-5-{2-[5-(2-methyl-pyrimidin-5-ylmethyl)-4-oxo-1,4-dihydro-pyrimidin-2-ylamino]-ethyl}-benzonitrile] | – | ≤ 1 | –
